Results from PMC12261233, “Photoactivatable Cyclometalated Ir(III) Compound Penetrates the Blood-Brain Barrier in 3D Spheroidal and Advanced 3D Organoid Models of Inherently Resistant and Aggressive Brain Tumors” (ACS Pharmacology & Translational Science, 2025).
Where two headings read alike, the source gives them in different places. Values belong to the compound of their own block, whether it stands above or below them.

Key:
Format in all cases: cell-based, human
U87MG spheroids [1] = assay: Distribution of iridium compounds in Matrigel-embedded spheroids (confocal); conditions: 5 μM, 3 h
Method: Spheroids derived from U87MG cells were encapsulated in a Matrigel matrix. The U87MG cells were incubated for 72 h under 3D conditions using ULA 96-well U-shaped plates (Corning) and cultured in DMEM-F12 ham medium supplemented with growth factors conducive to spheroid formation: 2% B27 (Thermo Fisher Scientific Inc., MA, USA), epidermal growth factor (EGF; Sigma-Aldrich, Germany, 20 ng mL^–1), fibroblast growth factor (FGF2; Sigma-Aldrich, Germany, 10 ng mL^–1), and BSA (0.15%). Following the 72-h spheroid formation phase, the samples were embedded in a Matrigel matrix and allowed to gel completely (30 min). Afterward, the spheroids were further cultured for 24 h in confocal Petri dishes (Mattek) with 3D forming medium. Subsequently, the samples were exposed to 5 μM of the tested compounds 3, 4, and 5 for 3 h. The samples were then rinsed, transferred to a fresh 3D forming medium, and visualized using a confocal microscope (Leica CM SP8 SMD, Leica, Germany). Imaging was conducted in defined Z-stacks with a 20 μm step, and fluorescence intensities were captured and analyzed using ImageJ software.

U87MG spheroids [2] = assay: Calcein AM/PPI staining of Matrigel-embedded spheroids after single-spheroid 405 nm irradiation (confocal); conditions: for change in calcein AM/PPI ratio with blue light irradiation: 405 nm irradiated; for change in calcein AM/PPI ratio under dark conditions: versus control
Method: Spheroids were treated with iridium complexes at IC50 concentrations (Table S4) for 3 h, followed by 405 nm laser irradiation for 60 s. After 24 h in a drug-free medium, spheroids were stained for analysis. Significant differences in live and dead cell counts were observed between irradiated and nonirradiated samples for Ir3 and Ir4, with morphological disruptions noted in treated spheroids, including reduced diameters and metabolically active cells concentrated in the core (Figure , panel III, inserts 2* and 4*).
Matrigel-embedded spheroids were treated for 3 h with the investigated compounds at concentrations corresponding to the IC50 determined for 3D cultures. Then, the samples were irradiated for 60 s with 405 nm laser light (1 mW) and placed in a drug-free, 3D forming medium for an additional 21 h. Then, treated and irradiated (or dark incubated controls) were stained with Hoechst 33258 (20 μg mL^–1), Calcein AM (2 μM), and PPI (8 μg mL^–1) for 2 h. Samples were sequentially imaged on a confocal microscope Leica CM SP5 (Leica, Germany), in 10 z-stack scans (20 μm each). Images were processed using ImageJ software. Fluorescence intensities were assessed for the maximal projections of the z-stacks, and the corresponding Calcein AM/PPI ratio was calculated. Hoechst dye was used to accurately define the Region of Interest (ROI) mask and analyze fluorescence intensities. Three independent experiments were carried out to ensure the reliability and reproducibility of the results. The representative images are shown.

U87MG cells = assay: Antiproliferative activity, 2D monolayer, SRB assay; conditions: for PI (phototoxicity index) 2D: IC50 dark / IC50 420 nm irradiated; for IC50: U87MG 2D monolayer, 90 min treatment, SRB
Method: The antiproliferative activity of the compounds under investigation was assessed using the Sulforhodamine B (SRB) assay on both 2D cell monolayers and 3D spheroids. For the 2D cell monolayer assay, cells were seeded in 96-well tissue culture plates at a density of 3 × 10^3 cells/well in 100 μL of culture medium. Following overnight incubation in a humidified CO2 incubator, the medium was replaced, and the cells were treated with the investigated compounds in a final volume of 200 μL/well of Earle’s Balanced Salt Solution (EBSS). The cells were then exposed to the tested compounds for 1.5 h under dark conditions (5% CO2, 37 °C) and subsequently irradiated with blue light (420 nm) for 30 min at an intensity of 58 W/m^2. After treatment, the samples were washed with Phosphate-Buffered Saline (PBS) and replenished with 200 μL of culture medium. Following an additional 70-h incubation, the cells were washed with PBS, fixed with trichloroacetic acid at 4 °C for 1 h, and stained with 0.4% SRB dye for 30 min. The stained cells were dissolved with Tris (10 mM), and the cell viability was assessed by measuring the absorbance at 570 nm using an Absorbance Reader (SPARK TECAN, SCHOELLER). […] After the 72-h spheroid formation period, the samples were treated and irradiated as described for the 2D cultures. […] The luminescence signal was detected using the plate reader SPARK (Tecan, Manedorf, Switzerland), and the IC50 values were calculated from the survival curves. All experiments were conducted in triplicate to ensure the reliability and reproducibility of the results. Furthermore, the concentrations of the compounds in the medium during the treatment were verified using Flame Atomic Absorption Spectroscopy (FAAS) or Inductively Coupled Plasma Mass Spectrometry (ICP-MS). […]
drug-free incubation. c IC50 values were determined by SRB assay. d IC50 values were determined by CellTiter-Glo® 3D chemiluminescent assay. e PI - phototoxicity index was calculated as the ratio of IC50 determined under the dark conditions / IC50 determined for 420 […]
models under irradiation conditions.

[3] = dark, 70 h drug-free incubation, read-out: IC50 2D Dark
[4] = 30 min blue light 420 nm 58 W m-2, 70 h drug-free, read-out: IC50 2D Irradiated

SMILES: CCCCn1c2[n+](c3cc(C(=O)OC)ccc31)[Ir-3]13([Cl])([c]4ccccc4-2)[n+]2ccccc2-c2cc(-c4ccc(C)cc4)cc([n+]21)-c1cccc[n+]13.F[P-](F)(F)(F)(F)F [Ir4]
distribution within spheroid (U87MG spheroids [1]): most uniform distribution | change in calcein AM/PPI ratio with blue light irradiation (U87MG spheroids [2]): substantial decrease | change in calcein AM/PPI ratio under dark conditions (U87MG spheroids [2]): significant decrease | PI (phototoxicity index) 2D (U87MG cells): 41 | IC50 (U87MG cells; [3]): 21.3 ± 1.4 µM | IC50 (U87MG cells; [4]): 0.52 ± 0.08 µM

IC50 (U87MG cells; Homo sapiens, U-87 MG, dark, 70 h drug-free incubation, read-out: IC50 2D Dark): ≥ 100 µM
SMILES: Cn1nnc2c(C(N)=O)ncn2c1=O [Temozolomide, reference compound]

SMILES: Cc1ccc(-c2cc3[n+]4c(c2)-c2cccc[n+]2[Ir-3]42([Cl])([c]4cc5ccccc5cc4-c4n(Cc5ccc(C(F)(F)F)cc5)c5ccccc5[n+]42)[n+]2ccccc2-3)cc1.F[P-](F)(F)(F)(F)F [Ir3]
distribution within spheroid (U87MG spheroids [1]): primarily localized in the outer regions of the spheroids | change in calcein AM/PPI ratio with blue light irradiation (U87MG spheroids [2]): substantial decrease | change in calcein AM/PPI ratio under dark conditions (U87MG spheroids [2]): insignificant changes | PI (phototoxicity index) 2D (U87MG cells): 45 | IC50 (U87MG cells; [3]): 30.4 ± 4.3 µM | IC50 (U87MG cells; [4]): 0.67 ± 0.08 µM

SMILES: Cc1ccc(-c2cc3[n+]4c(c2)-c2cccc[n+]2[Ir-3]42([Cl])([c]4c(ccc5c4OCO5)-c4n(Cc5ccc(C(F)(F)F)cc5)c5ccccc5[n+]42)[n+]2ccccc2-3)cc1.F[P-](F)(F)(F)(F)F [Ir5]
distribution within spheroid (U87MG spheroids [1]): primarily localized in the outer regions of the spheroids | change in calcein AM/PPI ratio with blue light irradiation (U87MG spheroids [2]): substantial decrease | change in calcein AM/PPI ratio under dark conditions (U87MG spheroids [2]): insignificant changes | PI (phototoxicity index) 2D (U87MG cells): 60 | IC50 (U87MG cells; [3]): 25.3 ± 2.1 µM | IC50 (U87MG cells; [4]): 0.42 ± 0.03 µM
